What was measured:
[1] = biological target: T1, Kinase (Mus musculus, UniProt B2RXC2); experiment: Inhibition of mouse ITPKb (640 to 942 residues) expressed in Escherichia coli HK100 assessed as reduction in IP3 phosphorylation incubated for 60 mins by kinase-Glo ATP depletion assay
T1 sequence (B2RXC2 whole entry): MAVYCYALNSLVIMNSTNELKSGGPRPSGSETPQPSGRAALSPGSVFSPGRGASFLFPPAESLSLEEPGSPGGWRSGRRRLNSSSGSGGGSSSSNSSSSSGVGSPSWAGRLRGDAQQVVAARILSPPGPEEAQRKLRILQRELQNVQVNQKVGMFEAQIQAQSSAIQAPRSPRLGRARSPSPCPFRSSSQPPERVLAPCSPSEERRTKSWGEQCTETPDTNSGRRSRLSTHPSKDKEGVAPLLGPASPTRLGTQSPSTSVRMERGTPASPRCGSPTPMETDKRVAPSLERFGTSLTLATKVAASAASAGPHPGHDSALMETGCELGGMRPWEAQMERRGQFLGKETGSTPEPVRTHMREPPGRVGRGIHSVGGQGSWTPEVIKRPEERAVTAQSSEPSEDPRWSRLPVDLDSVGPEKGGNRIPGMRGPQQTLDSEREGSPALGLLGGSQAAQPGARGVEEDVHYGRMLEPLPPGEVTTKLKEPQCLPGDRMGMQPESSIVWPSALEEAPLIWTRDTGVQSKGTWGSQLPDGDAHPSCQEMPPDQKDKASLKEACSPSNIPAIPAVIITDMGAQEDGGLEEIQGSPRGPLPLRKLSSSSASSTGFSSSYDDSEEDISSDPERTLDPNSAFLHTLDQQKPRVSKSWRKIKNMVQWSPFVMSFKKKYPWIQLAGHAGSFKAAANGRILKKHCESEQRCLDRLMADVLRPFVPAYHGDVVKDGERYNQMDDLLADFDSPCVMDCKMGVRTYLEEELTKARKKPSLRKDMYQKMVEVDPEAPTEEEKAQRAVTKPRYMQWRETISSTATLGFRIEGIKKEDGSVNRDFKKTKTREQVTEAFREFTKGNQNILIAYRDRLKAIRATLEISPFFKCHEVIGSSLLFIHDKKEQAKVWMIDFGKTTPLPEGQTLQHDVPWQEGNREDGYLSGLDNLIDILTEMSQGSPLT

[2] = biological target: T2, Inositol-trisphosphate 3-kinase B (Homo sapiens, UniProt P27987); experiment: Inhibition of ITPKb in human Jurkat cells assessed as reduction in conversion of IP3 to IP4 using [3H]-myo-inositol incubated for 5 mins by beta-RAM radio-HPLC method; type: cell-based
T2 sequence (P27987 whole entry): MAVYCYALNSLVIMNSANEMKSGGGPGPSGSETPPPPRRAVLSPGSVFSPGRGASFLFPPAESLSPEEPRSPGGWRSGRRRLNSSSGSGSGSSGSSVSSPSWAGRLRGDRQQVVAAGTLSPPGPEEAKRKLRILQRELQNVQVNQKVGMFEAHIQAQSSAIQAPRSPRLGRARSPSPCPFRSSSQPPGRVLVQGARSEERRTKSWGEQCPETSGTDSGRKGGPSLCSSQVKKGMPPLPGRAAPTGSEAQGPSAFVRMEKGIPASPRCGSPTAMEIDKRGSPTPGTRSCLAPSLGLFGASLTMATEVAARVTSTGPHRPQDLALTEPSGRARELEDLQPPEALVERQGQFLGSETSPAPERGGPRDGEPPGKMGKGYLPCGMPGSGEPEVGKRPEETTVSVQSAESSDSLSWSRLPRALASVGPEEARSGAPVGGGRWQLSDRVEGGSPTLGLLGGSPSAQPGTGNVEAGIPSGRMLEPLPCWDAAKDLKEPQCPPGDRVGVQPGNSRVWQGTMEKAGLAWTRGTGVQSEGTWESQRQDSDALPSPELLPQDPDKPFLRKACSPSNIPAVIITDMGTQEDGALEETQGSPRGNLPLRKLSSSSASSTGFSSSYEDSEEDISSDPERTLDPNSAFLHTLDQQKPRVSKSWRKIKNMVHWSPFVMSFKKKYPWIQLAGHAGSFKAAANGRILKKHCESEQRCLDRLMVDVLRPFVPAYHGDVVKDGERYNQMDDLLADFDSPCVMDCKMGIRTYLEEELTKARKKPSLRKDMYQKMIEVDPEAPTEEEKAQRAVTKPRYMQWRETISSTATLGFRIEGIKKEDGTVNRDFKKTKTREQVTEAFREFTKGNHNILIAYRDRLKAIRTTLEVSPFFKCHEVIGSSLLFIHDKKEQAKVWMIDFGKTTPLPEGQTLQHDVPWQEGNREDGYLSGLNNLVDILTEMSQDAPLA

SMILES | IC50 [1] | IC50 [2]
C[C@@H]1CN(Cc2c[nH]nc2-c2ccc3c(c2)CNC(=O)N3)CCN1c1ccc(C(F)(F)F)cn1 | < 0.1 µM | < 0.5 µM
C[C@@H]1CN(Cc2c[nH]nc2-c2ccc3c(c2)CNC(=O)O3)CCN1c1ccc(C#N)cn1 | < 0.1 µM | < 0.5 µM
C[C@@H]1CN(Cc2c[nH]nc2-c2ccc3oc(=O)[nH]c(=O)c3c2)CCN1c1ccc(C(F)(F)F)cn1 | < 0.1 µM | < 0.5 µM
C[C@@H]1CN(Cc2c[nH]nc2-c2ccc3c(c2)C(=O)NC(=O)C3)CCN1c1ccc(C(F)(F)F)cn1 | < 0.1 µM | < 0.5 µM
O=C1NCc2cc(-c3n[nH]cc3CN3CCN(c4ccc(C(F)(F)F)cn4)[C@H](CO)C3)ccc2O1 | < 0.1 µM | < 0.5 µM
O=C1Cc2ccc(-c3n[nH]cc3CN3CCCN(c4ccc(C(F)(F)F)cn4)CC3)cc2CN1 | < 0.1 µM | < 0.5 µM
C[C@H]1CN(Cc2c[nH]nc2-c2ccc3oc(=O)[nH]c(=O)c3c2)CCN1c1ccc(C(F)(F)F)cn1 | < 0.1 µM | < 0.5 µM
C[C@@H]1CN(Cc2c[nH]nc2-c2ccc3c(c2)CNC(=O)O3)CCN1c1cc(C#N)ccn1 | < 0.1 µM | < 0.5 µM
C[C@@H]1CN(Cc2c[nH]nc2-c2ccc3c(c2)CNC(=O)C3)CCN1c1ccc(C(F)(F)F)cn1 | < 0.1 µM | < 0.5 µM
O=C1NCc2cc(-c3n[nH]cc3CN3CCN(c4ccc(C(F)(F)F)cn4)C[C@H]3C(=O)O)ccc2O1 | < 0.1 µM | < 0.5 µM
O=C1NCc2cc(-c3n[nH]cc3CN3CCN(c4ccc(C(F)(F)F)cn4)C4(CC4)C3)ccc2O1 | < 0.1 µM | < 0.5 µM
C[C@@H]1CN(Cc2c[nH]nc2-c2ccc3[nH]c(=O)oc3c2)CCN1c1ccc(C(F)(F)F)cn1 | < 0.1 µM | < 0.5 µM
O=C1NCc2cc(-c3n[nH]cc3CN3C4CC3CN(c3ccc(C(F)(F)F)cn3)C4)ccc2O1 | < 0.1 µM | < 0.5 µM
C[C@@H]1CN(Cc2c[nH]nc2-c2ccc3c(c2)C(C)(C)NC(=O)O3)CCN1c1ccc(C(F)(F)F)cn1 | < 0.1 µM | < 0.5 µM
O=C1NCc2cc(-c3n[nH]cc3CN3CCN(c4ccc(C(F)(F)F)cn4)[C@H](C(F)(F)F)C3)ccc2O1 | < 0.1 µM | < 0.5 µM
Cc1cccc(N2CCN(Cc3c[nH]nc3-c3ccc4[nH]c(=O)oc4c3)CC2)c1C | < 0.1 µM | < 0.5 µM
C[C@@H]1CN(Cc2c[nH]nc2-c2ccc3c(c2)CNC(=O)O3)CCN1Cc1ccccc1F | < 0.1 µM | < 0.5 µM
C[C@H]1CN(Cc2c[nH]nc2-c2ccc3c(c2)CNC(=O)O3)CCN1c1ccc(C(F)(F)F)cn1 | < 0.1 µM | < 0.5 µM
C[C@@H]1CN(Cc2c[nH]nc2-c2ccc3c(c2)CNC(=O)O3)CCN1C1CCCCC1 | < 0.1 µM | < 0.5 µM
C[C@@H]1CN(Cc2c[nH]nc2-c2ccc3c(c2)CNC(=O)O3)CCN1c1ccc(C(F)(F)F)cc1 | < 0.1 µM | < 0.5 µM
O=C1NCc2cc(-c3n[nH]cc3CN3CCN(c4ccc(C(F)(F)F)cn4)C[C@H]3CF)ccc2O1 | < 0.1 µM | < 0.5 µM
O=c1[nH]c(=O)c2cc(-c3n[nH]cc3CN3C4CCC3CN(c3ccc(C(F)(F)F)cn3)C4)ccc2o1 | < 0.1 µM | < 0.5 µM
C[C@@H]1CN(Cc2c[nH]nc2-c2ccc3c(c2)CNC(=O)O3)CCN1c1cccc(C(F)(F)F)c1 | < 0.1 µM | < 0.5 µM
O=C1NCc2cc(-c3n[nH]cc3CN3CCN(c4ccc(C(F)(F)F)cn4)[C@@H](C(F)(F)F)C3)ccc2O1 | < 0.1 µM | < 0.5 µM
O=C1NCc2cc(-c3n[nH]cc3CN3CCN(c4ccc(C(F)(F)F)cn4)[C@H](CF)C3)ccc2O1 | < 0.1 µM | < 0.5 µM
O=C1NCc2cc(-c3n[nH]cc3CN3C4CCC3CN(c3ccc(C(F)(F)F)cn3)C4)ccc2O1 | < 0.1 µM | < 0.5 µM

Second part, the molecule after the results:

IC50 [1] | IC50 [2] | SMILES
< 0.1 µM | < 0.5 µM | C[C@@H]1CN(Cc2c[nH]nc2-c2ccc3oc(=O)[nH]c3c2)CCN1c1ccc(C(F)(F)F)cn1
< 0.1 µM | – | O=C1NCc2cc(-c3n[nH]cc3CN3CCN(c4ccc(C(F)(F)F)cn4)CC3C(F)(F)F)ccc2O1 (stereo not drawn)
< 0.1 µM | < 0.5 µM | O=C1NCc2cc(-c3n[nH]cc3CN3CCN(c4ccc(C(F)(F)F)cn4)C(C(F)(F)F)C3)ccc2O1 (stereo not drawn)
< 0.1 µM | < 0.5 µM | O=c1[nH]c(=O)c2cc(-c3n[nH]cc3CN3CCN(c4ccc(C(F)(F)F)cn4)CC3)ccc2o1
< 0.1 µM | < 0.5 µM | C[C@@H]1CN(Cc2c[nH]nc2-c2ccc3c(c2)CNC(=O)O3)CCN1c1nccc(C(F)(F)F)n1
< 0.1 µM | < 0.5 µM | C[C@@H]1CN(Cc2c[nH]nc2-c2ccc3c(c2)CNC(=O)O3)CCN1c1ccc(Cl)cn1
< 0.1 µM | < 0.5 µM | C[C@@H]1CN(Cc2c[nH]nc2-c2ccc3c(c2)CNC(=O)O3)CCN1c1ccc(Cl)cc1
< 0.1 µM | < 0.5 µM | O=C1NCc2cc(-c3n[nH]cc3CN3CCCN(c4ccc(C(F)(F)F)cn4)CC3)ccc2N1
< 0.1 µM | < 0.5 µM | O=C1NCc2cc(-c3n[nH]cc3CN3CCN(c4ccc(C(F)(F)F)cn4)C[C@H]3CO)ccc2O1
< 0.1 µM | < 0.5 µM | C[C@H]1CN(Cc2c[nH]nc2-c2ccc3[nH]c(=O)oc3c2)CCN1c1ccc(C(F)(F)F)cn1
< 0.1 µM | < 0.5 µM | O=C1NCc2cc(-c3n[nH]cc3CN3CCCN(c4ccc(C(F)(F)F)cn4)CC3)ccc2O1
< 0.1 µM | < 0.5 µM | Cc1ccc(N2CCN(Cc3c[nH]nc3-c3ccc4c(c3)CNC(=O)O4)C[C@H]2C)nc1
< 0.1 µM | < 0.5 µM | C[C@@H]1CN(Cc2c[nH]nc2-c2ccc3c(c2)CNC(=O)O3)CCN1c1ccc(C(F)(F)F)cn1
< 0.1 µM | < 0.5 µM | C[C@@H]1CN(Cc2n[nH]nc2-c2ccc3c(c2)CNC(=O)O3)CCN1c1ccc(C(F)(F)F)cn1
< 0.1 µM | < 0.5 µM | O=C1NCc2cc(-c3n[nH]cc3CN3CCN(c4ccc(C(F)(F)F)cn4)CC3)ccc2O1
< 0.1 µM | < 0.5 µM | Cc1cccc(N2CCN(Cc3c[nH]nc3-c3ccc4oc(=O)[nH]c(=O)c4c3)CC2)c1C

— ChEMBL document CHEMBL3714748, “Compounds and compositions as ITPKB inhibitors” (2012)
